Measurements taken from the NIST ThermoML archive (doi:10.1021/je400212t).
“And” between values parts separate entries of the source, which are not always exact repeats. Identical values can stand only once.

Details: Liquid, Transpiration method

CCCCCCCN [1-heptanamine]
Details	vapor or sublimation pressure [kPa]
280.2 K	0.07823
282.2 K	0.09451
284.2 K	0.1088
286.2 K	0.1232
288.2 K	0.1408
290.2 K	0.1641
292.2 K	0.1907
294.2 K	0.2219
296.2 K	0.2488
298.3 K	0.2885
300.3 K	0.3288
302.2 K	0.38
303.2 K	0.4098
306.2 K	0.5027

CC(N)c1ccccc1 (configuration not stated) [1-phenylethanamine]
Details	vapor or sublimation pressure
283.6 K	0.02509 kPa
287.8 K	0.03534 kPa
291.3 K	0.04928 kPa and 0.04951 kPa
295.3 K	0.06595 kPa
299.2 K	0.08866 kPa
303.1 K	0.1183 kPa
307.1 K	0.1552 kPa
311 K	0.2024 kPa
314.9 K	0.2602 kPa
318.9 K	0.3391 kPa
322.8 K	0.4391 kPa

CCCCCCCCN [1-octanamine]
Details	vapor or sublimation pressure
274.2 K	0.0157 kPa
277.7 K	0.0208 kPa
281 K	0.0274 kPa
283.2 K	0.0325 kPa
283.6 K	0.0347 kPa
285.9 K	0.0428 kPa
286.5 K	0.0428 kPa
289.2 K	0.0517 kPa
289.6 K	0.0545 kPa
292.4 K	0.069 kPa and 0.0677 kPa
295.2 K	0.084 kPa
295.3 K	0.0856 kPa and 0.0834 kPa
298.1 K	0.1047 kPa
298.5 K	0.1064 kPa
301.1 K	0.1353 kPa
301.2 K	0.1294 kPa and 0.1369 kPa and 0.1341 kPa
301.3 K	0.1312 kPa and 0.1328 kPa
304 K	0.1653 kPa
304.1 K	0.1667 kPa
307.1 K	0.2113 kPa
307.3 K	0.2102 kPa
310.2 K	0.2494 kPa
310.3 K	0.2578 kPa
312.3 K	0.3051 kPa
313 K	0.3121 kPa
313.3 K	0.3238 kPa

NCc1ccccc1 [benzylamine]
Details	vapor or sublimation pressure
275.5 K	0.01437 kPa
276.7 K	0.01472 kPa and 0.01525 kPa
278.6 K	0.01828 kPa
279.6 K	0.01912 kPa and 0.02004 kPa
281.5 K	0.02307 kPa
282.3 K	0.02534 kPa and 0.02615 kPa
284.5 K	0.03135 kPa
285.7 K	0.03458 kPa and 0.03341 kPa
287.6 K	0.03874 kPa
288 K	0.03934 kPa
290.5 K	0.04695 kPa
291.6 K	0.05362 kPa
293.5 K	0.06098 kPa
294.2 K	0.06487 kPa
296.5 K	0.07884 kPa
297.7 K	0.08247 kPa
298.4 K	0.0869 kPa
300.3 K	0.1015 kPa
301.3 K	0.1137 kPa
303.3 K	0.1283 kPa
303.4 K	0.1277 kPa and 0.1263 kPa
303.5 K	0.126 kPa
304.3 K	0.1363 kPa
306.1 K	0.1469 kPa
306.3 K	0.1514 kPa
307.4 K	0.1693 kPa
308.3 K	0.1781 kPa
308.4 K	0.1767 kPa
309.4 K	0.1871 kPa
309.5 K	0.1951 kPa
310.3 K	0.2082 kPa
312.2 K	0.2284 kPa
312.3 K	0.2272 kPa and 0.2339 kPa
313.4 K	0.2491 kPa
315.6 K	0.3016 kPa

NCCc1ccccc1 [2-phenylethylamine]
Details	vapor or sublimation pressure
285.2 K	0.01545 kPa
287.4 K	0.01817 kPa
288.2 K	0.01989 kPa and 0.01942 kPa
290.1 K	0.02316 kPa
293.1 K	0.02888 kPa
293.2 K	0.03129 kPa
298.2 K	0.04648 kPa and 0.04334 kPa
298.3 K	0.0443 kPa
300.1 K	0.05196 kPa
302 K	0.06007 kPa
303.2 K	0.06532 kPa
303.3 K	0.06414 kPa and 0.06328 kPa
304.2 K	0.06955 kPa
305.1 K	0.07177 kPa and 0.0755 kPa
306.4 K	0.08176 kPa
308.2 K	0.09258 kPa and 0.0878 kPa
310.4 K	0.1067 kPa
311.2 K	0.1201 kPa
313.2 K	0.1331 kPa
313.4 K	0.1311 kPa
314.2 K	0.1374 kPa
317.2 K	0.1818 kPa
318.2 K	0.1891 kPa
318.4 K	0.1878 kPa
320.2 K	0.2187 kPa
323.2 K	0.2655 kPa

CCCCCCCCCCN [1-decanamine]
Details	vapor or sublimation pressure
299.1 K	0.013 kPa
300.2 K	0.014 kPa
301.3 K	0.0158 kPa
304 K	0.0195 kPa
306.2 K	0.0228 kPa
307.3 K	0.0262 kPa
308.6 K	0.0291 kPa
310.2 K	0.0321 kPa
312.2 K	0.036 kPa
313.2 K	0.0426 kPa
315.1 K	0.046 kPa
316.2 K	0.0512 kPa
317.2 K	0.0553 kPa
320 K	0.0655 kPa
320.9 K	0.0722 kPa
323.2 K	0.0805 kPa
324.3 K	0.0911 kPa and 0.0914 kPa
327.2 K	0.106 kPa
330.1 K	0.135 kPa and 0.1356 kPa
332.8 K	0.1661 kPa and 0.1645 kPa
333.1 K	0.1628 kPa and 0.1635 kPa
335.9 K	0.1979 kPa and 0.2119 kPa
338.9 K	0.2519 kPa and 0.2628 kPa
341.9 K	0.3064 kPa and 0.3025 kPa
343 K	0.3357 kPa
